This note sets out measurements from US9562043B2 (EA Pharma Co., Ltd., priority 2012, dated 2017).

pIC50: −log10 of the molar value.

One assay has as its target T1, TRPA1 channel (Mus musculus, UniProt Q8BLA8).
T1 construct: from tissue; host or cells: living male ICR mice (sole of the left leg, sensory nerves)
The assay is described as follows: AITC-induced pain behavior evaluation test (mouse licking model). The format is in vivo. Particulars: male ICR mice; p.o. 30 mpk, 1 h before AITC (0.1%) s.c. to sole; licking time in 5 min vs vehicle. The protocol:
AITC-Induced Pain Behavior Evaluation Test
To evaluate the effectiveness of the test substance in vivo, allylisothiocyanate (AITC)-induced pain behavior evaluation test was performed using mice.
AITC is a selective agonist of the TRPA1 channel, and causes a pain behavior by TRPA1 activation when administered to animal. Therefore, the intensity of the TRPA1 antagonist action of the test substance in the living body can be evaluated by measuring the pain behavior after AITC administration.
1. Administration of Test Substance to Animal
As the animal, male ICR mice (6- to 8-week-old) were used. The mice were fasted the previous day of the test. The test substance was intraperitoneally or orally administered for evaluation. In the case of intraperitoneal administration, the substance was administered 30 min before the AITC administration. In the oral administration, the substance was administered 60 min before the AITC administration.
2. AITC-Induced Pain Behavior Evaluation
3. Calculation of Inhibitory Rate
The licking time of the vehicle administration group in each test was taken as 100%, and the activity rate by administration of each test substance (Licking time on test substance administration/Licking time of vehicle administration group×100) was determined, and the numerical value obtained by subtracting the activity rate from 100 was calculated as an inhibitory rate.

Another assay deals with T2, human TRPA1 (Homo sapiens, UniProt O75762).
T2 construct: host or cells: human embryonic kidney-derived 293T cells, transient transfection with pcDNA3.1/zeo(+) plasmid
The assay is described as follows: Measurement of TRPA1 antagonist activity (intracellular calcium increase, FLIPR). The format is cell-based. Particulars: 293T cells transfected with human TRPA1 expression plasmid, allylisothiocyanate 20 μM stimulation, calcium fluorescence, read-out: antagonism hTRPA1. The source says: Measurement of TRPA1 Antagonist Activity
Human TRPA1 Expression Plasmid
As cDNA encoding human TRPA1 (GenBank accession No. […]), a commercially available product was purchased (manufactured by Kazusa DNA Research Institute, clone No.: pFN21AB7348, item No.: FHC07217). Using this as a template, full-length human TRPA1 gene was amplified using the primer sequences shown below, by reaction using DNA polymerase (manufactured by Stratagene, trade name: PfuUltra High-Fidelity DNA Polymerase).
A recognition site (underlined) of restriction enzyme HindIII was added to the 5′ side, and XbaI site (underlined) was added to the 3′ side, and GTT of the template sequence was changed to termination codon TAG (bold). The obtained double stranded DNA was enzyme-digested with HindIII and XbaI, and introduced into a multicloning site of expression plasmid pcDNA3.1/zeo(+) (manufactured by Invitrogen) to give a human TRPA1 expression plasmid.
Human embryonic kidney-derived 293T cells were cultured in Dulbecco's Modified Eagle Medium containing 10% fetal bovine serum, 10 unit penicillin, and 10 μg streptomycin, plated on a petri dish having a diameter of 10 cm at 3×10^6 cells, and cultured for 24 hr. A medium containing a reduced amount of serum (manufactured by Invitrogen, trade name: OPTI-MEM, 600 μL), a gene insertion reagent (manufactured by Mirus Bio, trade name: Mirus TransIT-293, 18 μL), and human TRPA1 expression plasmid (6 μg) were mixed, the total amount of the mixture was added to the cells on the petri dish to allow for gene transfer. The cells were recovered about 8 hr later, plated on a poly-D-lysine coated 384 well black/clear bottom plate at 7,500-12,000 cells/well, and cultured overnight.
Measurement of Intracellular Calcium Increase
The 384 well plate was recovered, and the medium was removed. A calcium-bonded fluorescent indicator (manufactured by Molecular Device, trade name: Calcium4 Assay Kit, 40 μL) dissolved in assay buffer (1×HBSS, 20 mM HEPES, pH 7.2) was added, and the cells were stained in a 37° C. incubator for 1 hr. The cells were taken out at room temperature and left standing for 15 min or more. A test substance (10 μL) was added by a 384 well type dispenser, and the mixture was incubated at room temperature for 10 min. Then, allylisothiocyanate (12.5 μL) at a final concentration of 20 μM was added by a fluorescence imaging plate reader (manufactured by Molecular Device, FLIPR), and changes in the relative fluorescence intensity were measured for 5 min.
Test Substance Preparation
The test substance was dissolved in dimethyl sulfoxide and serially diluted with an assay buffer containing 0.1% bovine serum albumin (1×HBSS, 20 mM HEPES, pH 7.2) to a 5-fold concentration of the evaluation concentration. Allylisothiocyanate, which is a known TRPA1 activator, was dissolved in dimethyl sulfoxide to 100 mM, and further diluted 5-fold (100 μM) of the final concentration, like the test substance.
Calculation of Antagonist Activity
Under the test substance-free conditions, the maximum variation range of the fluorescence intensity before and after allylisothiocyanate stimulation was defined to be 100% activity rate, and the variation range before and after buffer stimulation was defined as 0% activity rate. The activity rate on addition of the test substance was determined, and the numerical value obtained by subtracting the activity rate from 100 was defined to be an inhibitory rate. IC50, which is the concentration of the test substance necessary for reaching the 50% inhibitory rate, was calculated from the sigmoid approximate curve by a spreadsheet software Excel-Fit.

T2 sequence (O75762 whole entry): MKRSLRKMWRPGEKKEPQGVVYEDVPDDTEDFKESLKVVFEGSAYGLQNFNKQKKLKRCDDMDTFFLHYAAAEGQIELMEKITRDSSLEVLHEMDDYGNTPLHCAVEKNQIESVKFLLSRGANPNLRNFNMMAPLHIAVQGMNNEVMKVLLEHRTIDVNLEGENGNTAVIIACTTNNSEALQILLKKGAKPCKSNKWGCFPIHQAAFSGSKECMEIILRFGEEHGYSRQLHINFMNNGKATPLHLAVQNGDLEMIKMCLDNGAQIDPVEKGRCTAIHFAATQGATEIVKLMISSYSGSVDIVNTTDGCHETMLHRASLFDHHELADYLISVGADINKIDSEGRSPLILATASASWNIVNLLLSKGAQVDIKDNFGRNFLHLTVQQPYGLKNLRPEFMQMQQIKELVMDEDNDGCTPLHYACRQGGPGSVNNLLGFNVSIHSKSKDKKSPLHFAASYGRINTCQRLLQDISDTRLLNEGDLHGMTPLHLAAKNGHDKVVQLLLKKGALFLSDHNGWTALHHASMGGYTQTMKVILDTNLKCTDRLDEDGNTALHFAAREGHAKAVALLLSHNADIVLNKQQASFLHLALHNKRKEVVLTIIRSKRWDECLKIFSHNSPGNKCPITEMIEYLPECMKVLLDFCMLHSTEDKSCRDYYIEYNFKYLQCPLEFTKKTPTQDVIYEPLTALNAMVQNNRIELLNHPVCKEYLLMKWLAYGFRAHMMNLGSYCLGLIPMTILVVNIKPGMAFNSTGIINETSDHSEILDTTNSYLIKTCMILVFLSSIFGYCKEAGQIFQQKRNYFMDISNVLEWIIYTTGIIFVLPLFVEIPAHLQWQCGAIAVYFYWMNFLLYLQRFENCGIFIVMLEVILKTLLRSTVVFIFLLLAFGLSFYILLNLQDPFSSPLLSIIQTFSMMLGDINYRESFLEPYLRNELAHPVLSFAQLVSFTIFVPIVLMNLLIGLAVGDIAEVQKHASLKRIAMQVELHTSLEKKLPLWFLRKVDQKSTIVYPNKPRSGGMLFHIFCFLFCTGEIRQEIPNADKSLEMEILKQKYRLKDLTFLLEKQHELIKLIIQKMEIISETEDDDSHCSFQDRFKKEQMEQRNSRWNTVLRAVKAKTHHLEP
T1 sequence (Q8BLA8 whole entry): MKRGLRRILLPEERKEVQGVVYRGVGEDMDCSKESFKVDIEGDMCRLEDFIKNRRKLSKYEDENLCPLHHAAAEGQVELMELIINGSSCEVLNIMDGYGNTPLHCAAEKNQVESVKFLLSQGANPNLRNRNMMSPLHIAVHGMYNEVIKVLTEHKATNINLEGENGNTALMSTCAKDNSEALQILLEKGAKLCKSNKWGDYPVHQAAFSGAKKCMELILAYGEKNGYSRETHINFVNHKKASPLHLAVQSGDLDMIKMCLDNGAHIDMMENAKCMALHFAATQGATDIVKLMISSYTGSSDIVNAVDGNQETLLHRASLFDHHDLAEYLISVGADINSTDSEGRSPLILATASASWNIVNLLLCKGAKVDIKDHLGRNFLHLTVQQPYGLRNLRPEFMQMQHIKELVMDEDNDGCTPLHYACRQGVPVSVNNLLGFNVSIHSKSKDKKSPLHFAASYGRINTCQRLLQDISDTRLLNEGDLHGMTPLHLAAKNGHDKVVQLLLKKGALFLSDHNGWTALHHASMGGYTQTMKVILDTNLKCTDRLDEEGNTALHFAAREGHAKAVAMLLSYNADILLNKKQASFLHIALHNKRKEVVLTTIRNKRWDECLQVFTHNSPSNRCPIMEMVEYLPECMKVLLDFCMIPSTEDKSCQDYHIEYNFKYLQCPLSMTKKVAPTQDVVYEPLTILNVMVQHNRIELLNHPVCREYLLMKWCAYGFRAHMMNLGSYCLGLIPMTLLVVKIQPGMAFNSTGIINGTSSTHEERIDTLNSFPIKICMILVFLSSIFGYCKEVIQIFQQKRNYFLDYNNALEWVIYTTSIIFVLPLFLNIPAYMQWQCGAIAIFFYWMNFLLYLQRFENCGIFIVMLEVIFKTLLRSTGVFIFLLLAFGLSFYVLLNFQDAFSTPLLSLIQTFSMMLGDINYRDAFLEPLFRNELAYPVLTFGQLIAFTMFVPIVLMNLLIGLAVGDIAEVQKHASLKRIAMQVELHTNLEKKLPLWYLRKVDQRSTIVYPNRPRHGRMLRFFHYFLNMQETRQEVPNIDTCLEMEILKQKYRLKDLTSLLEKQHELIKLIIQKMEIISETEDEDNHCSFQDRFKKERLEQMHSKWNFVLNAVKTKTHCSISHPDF

For the compound `O=C(NCc1nc(-c2ccc(C(F)(F)F)cc2)cs1)[C@@H]1CCCN1S(=O)(=O)c1ccc(Cl)s1` [compound 1, (2S)-1-(5-chlorothiophene-2-sulfonyl)-N-({4-[4-(trifluoromethyl)phenyl]thiazol-2-yl}methyl)pyrrolidine-2-carboxamide], the “mouse licking model (p.o. 1 h, 30 mpk) (% inh.)” value on TRPA1 channel worked out at 36 % inh. For the same compound, the pIC50 on human TRPA1 is 6.85.

In the case of `O=C(NCc1nc(-c2ccc(OC(F)(F)F)cc2)cs1)[C@@H]1C=CCN1S(=O)(=O)c1ccc(Cl)s1` [compound 20, (2S)-1-(5-chlorothiophene-2-sulfonyl)-N-({4-(4-(trifluoromethoxy)phenyl]-thiazol-2-yl}methyl)-3,4-didehydropyrrolidine-2-carboxamide], the “mouse licking model (p.o. 1 h, 30 mpk) (% inh.)” value at TRPA1 channel turned out to be 43 % inh. The pIC50 on human TRPA1 was 7.05.

As to `O=C(NCc1nc(-c2ccc(C(F)(F)F)cc2)cs1)[C@@H]1CCCN1S(=O)(=O)c1ccsc1` [compound 49, (2S)-1-(3-thienylsulfonyl)-N-({4-[4-(trifluoromethyl)-phenyl)thiazol-2-yl}methyl)-pyrrolidine-2-carboxamide], at human TRPA1, the pIC50 is 6.47.

Consider `O=C(NCc1nc(-c2ccc(C(F)(F)F)cc2)cs1)[C@@H]1CCCN1S(=O)(=O)c1cccc(F)c1` [compound 50, (2S)-1-(3-fluorophenyl) sulfonyl-N-({4-(4-(trifluoro-methyl)phenyl]thiazol-2-yl)-methyl)pyrrolidine-2-carboxamide], for which the pIC50 at human TRPA1 is 7.00.

Consider `O=C(NCc1nc(-c2ccc(C(F)(F)F)cc2)cs1)[C@@H]1CCCN1S(=O)(=O)c1ccc(F)c(F)c1` [compound 51, (2S)-1-(3,4-difluorophenyl)sulfonyl-N-({4-[4-(trifluoromethyl)-phenyl)thiazol-2-yl}methyl)pyrrolidine-2-carboxamide], for which, at human TRPA1, the pIC50 was 7.22.

As for `O=C(NCc1nc(-c2ccc(C(F)(F)F)cc2)cs1)[C@@H]1CCCN1S(=O)(=O)c1ccc(F)c(Cl)c1` [compound 52, (2S)-1-(3-chloro-4-fluoro-phenyl)sulfonyl-N-({4-[4-(trifluoromethyl)phenyl]-thiazol-2-yl}methyl)pyrrolidine-2-carboxamide], the pIC50 at human TRPA1 is 6.54.

On to `O=C(NCc1nc(-c2ccc(C(F)(F)F)cc2)cs1)[C@@H]1CCCN1S(=O)(=O)c1ccc(F)cc1F` [compound 53, (2S)-1-(2,4-difluorophenyl)sulfonyl-N-{{4-[4-(trifluoromethyl)-phenyl]thiazol-2-yl}methyl)pyrrolidine-2-carboxamide], for which the pIC50 on human TRPA1 was 5.34.

For the compound `O=C(NCc1nc(-c2ccc(C(F)(F)F)cc2)cs1)[C@@H]1CCCN1S(=O)(=O)c1cc(F)cc(F)c1` [compound 54, (2S)-1-(3,5-difluorophenyl)sulfonyl-N-({4-[4-(trifluoromethyl)-phenyl]thiazol-2-yl}methyl)pyrrolidine-2-carboxamide], at human TRPA1, the pIC50 is 6.77.
